Results on four molecules are retold here after patent publication US20110319461A1, “NOVEL SALTS, POLYMORPHS, AND SYNTHETIC PROCESSES REGARDING IMIDAZOLE DERIVATIVE” (Ore Pharmaceuticals Inc., priority 2010, published 2011).

Each structure is given as a SMILES string. Where two headings read alike, the source gives them in different places.

Data set [1] has as its system upper gastrointestinal tract of the mouse. Briefly: Anti-inflammatory effects in the upper gastrointestinal tract. Format: in vivo.
Data set [2] deals with NSAID-induced gastric damage in rats. As to the kind of experiment: NSAID-induced gastric damage. Format: in vivo.
Data set [3] relates to acute dextran sodium sulfate-induced colitis in mice. As to the kind of experiment: Acute dextran sodium sulfate (DSS)-induced colitis. The note with it: for DSS-induced colon shortening: high dose Compound (I) and sulfasalazine. The data set is classed as in vivo. From the text:
2-[1-(S)-carboxy-2(S)-[3-(3,5-dichloro-benzyl)-3H-imidazol-4-yl]-ethylamino]-4-methyl-pentanoic acid, herein also referred to as Compound (I), is described in U.S. Pat. No. 6,632,830, U.S. Pat. No. 7,045,532, and WO 00/066104, each herein incorporated by reference in their entirety. Additionally, Compound (I) is discussed in “Substrate-Based Design of the First Class of Angiotensin-Converting Enzyme-Related Carboxypeptidase (ACE2) Inhibitors”, Dales, N. A., et al., J. Amer. Chem. Soc., 2002, 124, 11852-11853, incorporated by reference. As reported by Byrnes et al., Effects of the ACE2 inhibitor GL1001 on acute dextran sodium sulfate-induced colitis in mice, Inflamm. […] Doses of Compound (I) ameliorated DSS-induced disease activity, including rectal prolapsed and intestinal bleeding. […] Compound (I) provides therapeutic potential for inflammatory bowel disease.
Exposure to DSS prior to vehicle treatment (vehicle+DSS group) produced a time-dependent decrease in body weight that recovered by day 15. This body weight loss and recovery was similar in animals having received repeated doses of Compound (I) (300 mg/kg).
Disease activity index (DAI), namely rectal prolapsed, stool consistency, and fecal occult blood) was assessed every other day throughout the experiment. By experimental day 7, significant DSS-induced disease began to emerge, and trends toward recovery were observed by day 11. Statistical analyses were conducted on data obtained on the days of peak severity: day 7 (presence of fecal blood and diarrhea) and day 9 (rectal prolapse). All DAI data were analyzed by one-way ANOVA. Compared to non-DSS controls, DSS treatment markedly elevated scores for fecal occult blood, stoll consistency, and rectal prolapsed. These effects were attenuated by Compound (I) (300 mg/kg).
On experimental day 15, colon was obtained from each animal and length was measured. […] No effects of 30 or 100 mg/kg on DSS-induced colon shrinkage were observed (P>0.05 for all). Total histopathology score (inflammation+glandular epithelial loss+mucosal erosion) for each treatment group is represented with a maximum obtainable score of 15. One-way ANOVA indicated significant DSS_induced damage (vs. non-DSS control) in each region studied, with the most damage occurring in the distal colon.

A short description of the next data set: Water solubility. The data set is classed as physicochemical.
Data set [4] is described as follows: Storage stability of the drug substance. The data set is classed as physicochemical.
The target of a further data set is ACE2 (Homo sapiens, UniProt Q9BYF1). The note with it: cited from earlier work.
Chain of ACE2 (Q9BYF1 18-805): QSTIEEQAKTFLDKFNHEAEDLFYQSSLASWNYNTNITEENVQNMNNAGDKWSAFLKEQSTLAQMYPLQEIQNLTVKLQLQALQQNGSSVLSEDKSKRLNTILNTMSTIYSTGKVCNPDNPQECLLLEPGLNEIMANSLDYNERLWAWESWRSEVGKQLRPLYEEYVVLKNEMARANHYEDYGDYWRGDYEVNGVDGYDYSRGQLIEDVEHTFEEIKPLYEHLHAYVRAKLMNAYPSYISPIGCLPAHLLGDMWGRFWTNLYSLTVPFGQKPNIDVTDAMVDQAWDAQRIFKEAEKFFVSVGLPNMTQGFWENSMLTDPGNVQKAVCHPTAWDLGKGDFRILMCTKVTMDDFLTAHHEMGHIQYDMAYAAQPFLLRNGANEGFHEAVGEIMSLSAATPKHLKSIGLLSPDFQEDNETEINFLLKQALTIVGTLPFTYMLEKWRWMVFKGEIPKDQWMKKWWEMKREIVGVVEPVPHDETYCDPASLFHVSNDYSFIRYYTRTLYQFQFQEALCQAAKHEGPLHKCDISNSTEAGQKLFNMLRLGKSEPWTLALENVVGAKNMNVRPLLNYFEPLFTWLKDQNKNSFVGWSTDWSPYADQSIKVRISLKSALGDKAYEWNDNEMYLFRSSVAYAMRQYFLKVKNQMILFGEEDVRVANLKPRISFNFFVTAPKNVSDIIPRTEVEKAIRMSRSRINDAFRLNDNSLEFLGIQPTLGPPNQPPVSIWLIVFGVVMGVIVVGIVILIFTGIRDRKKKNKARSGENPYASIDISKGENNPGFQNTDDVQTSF
Another data set concerns the target ACE (Homo sapiens, UniProt P12821). The note with it: per Dales et al.; read-out: IC50 against ACE (selectivity); cited from earlier work.
The next data set concerns the target T1, CPDA (Bos taurus, UniProt P00730).
T1 sequence (P00730 111-419): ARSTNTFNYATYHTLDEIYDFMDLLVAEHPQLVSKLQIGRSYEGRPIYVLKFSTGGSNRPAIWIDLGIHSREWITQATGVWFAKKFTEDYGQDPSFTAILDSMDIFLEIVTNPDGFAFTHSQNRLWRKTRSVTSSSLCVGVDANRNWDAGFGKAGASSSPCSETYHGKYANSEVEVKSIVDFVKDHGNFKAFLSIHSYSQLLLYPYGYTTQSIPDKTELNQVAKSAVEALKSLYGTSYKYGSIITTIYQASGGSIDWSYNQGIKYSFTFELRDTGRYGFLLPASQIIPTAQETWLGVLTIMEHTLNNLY
The note with it: per Dales et al.; read-out: IC50 against CPDA (selectivity); cited from earlier work.

Data set [5] relates to acute dextran sodium sulfate-induced colitis in mice. Conditions: as reported by Byrnes et al., cited from earlier work.
The mark [6] stands for this setting: profound effect in the distal segment.

Chain of ACE (P12821 1-732 isoform P12821-3): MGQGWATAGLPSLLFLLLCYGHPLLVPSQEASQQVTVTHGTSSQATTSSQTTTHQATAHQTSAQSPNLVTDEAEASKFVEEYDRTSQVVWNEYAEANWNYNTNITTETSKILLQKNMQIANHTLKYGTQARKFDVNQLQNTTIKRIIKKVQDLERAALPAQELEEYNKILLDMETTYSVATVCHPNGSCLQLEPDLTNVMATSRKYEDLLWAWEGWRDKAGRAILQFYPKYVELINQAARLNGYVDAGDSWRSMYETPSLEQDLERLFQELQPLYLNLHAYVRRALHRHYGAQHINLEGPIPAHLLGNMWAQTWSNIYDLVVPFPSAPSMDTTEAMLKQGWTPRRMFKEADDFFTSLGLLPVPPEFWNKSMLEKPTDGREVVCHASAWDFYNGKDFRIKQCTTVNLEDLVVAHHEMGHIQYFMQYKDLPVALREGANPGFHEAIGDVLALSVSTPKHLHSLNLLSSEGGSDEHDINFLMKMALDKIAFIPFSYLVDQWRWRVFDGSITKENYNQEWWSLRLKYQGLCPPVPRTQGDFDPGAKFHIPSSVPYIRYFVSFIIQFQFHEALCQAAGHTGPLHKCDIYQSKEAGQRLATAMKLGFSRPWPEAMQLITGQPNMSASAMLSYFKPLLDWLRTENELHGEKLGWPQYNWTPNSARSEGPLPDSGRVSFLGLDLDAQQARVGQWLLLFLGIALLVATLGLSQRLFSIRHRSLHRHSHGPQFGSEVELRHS

With `CC(C)C[C@H](N[C@@H](Cc1cncn1Cc1cc(Cl)cc(Cl)c1)C(=O)O)C(=O)O` [Compound (I), 2-[1-(S)-carboxy-2(S)-[3-(3,5-dichloro-benzyl)-3H-imidazol-4-yl]-ethylamino]-4-methylpentanoic acid], the “anti-inflammatory effects in the upper gastrointestinal tract” value in [1] is “exhibits anti-inflammatory effects”. For the same molecule, in [2], the “protection against NSAID-induced gastric damage” value is recorded as “protects against NSAID-induced gastric damage”. The body weight recovery result in [3] (30 mg/kg, by day 15) was “compete recovery by day 15”. Also, the “body weight loss and recovery compared with vehicle+DSS group” value in data set [3] (300 mg/kg repeated b.i.d., days 5-15) was “similar”. The “disease activity index (fecal occult blood, stool consistency, rectal prolapse) elevated by DSS” value in data set [3] (300 mg/kg, day 7 and day 9) is given as “attenuated”. Moreover, in [3] (300 mg/kg, day 15), the “DSS-induced damage in the distal colon (total histopathology score)” value is “significantly attenuated”. In addition, in data set [3] (30 and 100 mg/kg, maximum effects on day 9), the body weight reduction entry is recorded as “exhibited the largest weight reduction”. Also, the “effect on any DAI parameter” value in data set [3] (30 or 100 mg/kg, all P>0.05) is given as “no effects were observed”. Further, the DSS-induced colon shrinkage result in data set [3] (day 15, 30 or 100 mg/kg, P>0.05) is on record as “No effects”. Moreover, the DSS-induced colon shortening result in data set [3] (day 15) is “reversed”. The “water solubility” value in “Water solubility” was “excellent”; in “Water solubility” (listed as dicarboxylic acid), “limited”. Also, the “long-term stability / degradation” value in data set [4] (ambient temperature and humidity, 7 years) is listed as “no apparent degradation”. Besides, at ACE2, the “ACE2 inhibitor potency and selectivity” value is “potent and selective”. Also, the IC50 at ACE and at CPDA was > 50 µM throughout. For the same molecule, in data set [5], the “DSS-induced disease activity, including rectal prolapse and intestinal bleeding” value is on record as “ameliorated”. Besides, the colon pathology result in data set [5] (setting [6]) was “markedly attenuated”. Further, in [5] (setting [6]), the myeloperoxidase activity result is “markedly attenuated”.
For the molecule `CC(C)C[C@H](N[C@@H](Cc1cncn1Cc1cc(Cl)cc(Cl)c1)C(=O)[O-])C(=O)[O-].[Na+].[Na+]` [disodium salt anhydrate], the “stability” value in data set [4] (ambient temperatures) is “unstable, thermally sensitive, and subject to oxidation at ambient temperatures”.
Turning to `O=C(O)c1cc(/N=N/c2ccc(S(=O)(=O)Nc3ccccn3)cc2)ccc1O` [sulfasalazine, reference compound], the “rectal prolapse and bleeding (DAI)” value in data set [3] (150 mg/kg, compared with Compound (I) 300 mg/kg) is listed as “similarly efficacious”. In data set [3] (day 15), the DSS-induced colon shortening entry is “reversed”. The “body weight recovery compared with vehicle+DSS and Compound (I) 300 mg/kg groups” value in data set [3] (sulfasalazine-treated animals, day 15) is “did not recover to the same extent by day 15”.
In the case of `CC(C)C[C@@H](N[C@H](Cc1cncn1Cc1cc(Cl)cc(Cl)c1)C(=O)O)C(=O)O` [R,R isomer, 2-[1-(R)-carboxy-2(R)-[3-(3,5-dichloro-benzyl)-3H-imidazol-4-yl]-ethylamino]-4-methylpentanoic acid, reference compound], at ACE2 (stereoisomers of Compound (I), per Dales et al., read-out: activity of the isomer (ACE2 inhibition)), the IC50 is > 50 µM.
